Test results reported in patent US20100130598A1, “METHODS FOR INDUCING PROGRAMMED CELL DEATH” (Novogen Research Pty Ltd., priority 2008, published 2010).

Columns and labels:
Format in all cases: cell-based, human
MIAPaCa-2 cells = assay: Mitochondrial membrane potential by FACS (JC-1), MIAPaCa-2; details: MIAPaCa-2, dose-dependent, 48 hrs of treatment
Procedure: (§1) Cells. Human pancreatic cell lines HPAC, MIAPaCa-2 and PANC-1 were obtained from the ATCC. (Manassas, Va.). The cells were maintained in DMEM media with Gln and high glucose (Mediatech, Manassas, Va.) with 10% fetal bovine serum (FBS, HyClone, Logan, Utah) and pencillin/streptomycin.
(§2) FACS Analysis. Apoptosis was measured by FACS analysis using Annexin-V-FITC and propidium iodide (PI) (Biovision, Mountain View, Calif.) as probes (Ahn et al., 2003). Mitochondrial membrane potential was measured by FACS analysis using JC-1 (Biovision) as a probe (Ahn et al., 2003). Cell cycle was analyzed on ethanol-fixed, RNaseA-treated cells staining with PI. In each spectrum, 10,000 gated events were recorded and analyzed with a FACSCalibur (BD Biosciences. San Jose, Calif.). All experiments were done in triplicate, error bars represent one standard deviation. Caspase inhibitor I (zVAD-fmk) was obtained from Calbiochem.

PANC-1 cells = assay: Cell cycle analysis by FACS (PI), PANC-1; details: PANC-1, 10 μM
Procedure: as §1, §2

[1] = tested on: Caspase 2, 3 and 9 in HPAC cells; assay: In situ caspase activity by flow cytometry, HPAC
Procedure: as §1
[…] The cells were incubated with caspase substrates for 1 h at 37° C., 5% CO2, then probed with Annexin-V-Cy5 and sytox blue. Caspase +ve cells were gated as shown in the histograms and these cells are indicated on the Annexin-V-Cy5/sytox blue spectra as blue cells. In situ caspase activity was assayed using fluorescent substrates. For Caspase 2, FITC-VDVAD-fmk (Biovision K182-100), for Caspase 3, FITC-DEVD-fmk (K183-100) and for Caspase 9, FITC-LEHD-fmk (K199-100) was used. These substrates bind irreversibly to their respective activated caspases, and caspase activation was quantitated by flow cytometry. After 1 hr incubation at 37° C. in 5% CO2, the cells were washed with DPBS containing 5% FBS and resuspended in Annexin-V binding buffer containing Annexin-V-Cy5 (Biovision K103-3) and sytox blue (Invitrogen), a dye that binds necrotic cells. Caspase activation, apoptosis and necrosis were measured simultaneously using a violet, blue and red laser in a BD LSRII flow cytometer.

[2] = tested on: phosphorylated Akt (p-Akt); assay: Western blot of EOC whole cell lysates for phospho-Akt; details: EOC cells, 10 g/ml (as printed, FIG. 2 legend), as early as 15 mins post-treatment
Source text: Protein preparation and cellular fractionation. After drug treatment, protein was extracted and measured as previously described (Alvero et al, 2006). For separation of the cytoplasmic and mitochondrial fractions, cell pellets were processed using the ApoAlert™ Cell Fractionation Kit (BD Biosciences, San Jose, Calif.) according to the manufacturer's instructions. For separation of the cytoplasmic and nuclear fractions, pellets were processed using NE-PER Nuclear and Cytoplasmic Extraction (Pierce Biotechnology, Inc., Rockford, Ill.).
SDS-PAGE and Western blots. Cell lysates (20 μg protein) were denatured in sample buffer (2.5% SDS, 10% glycerol, 5% β-mercapto-ethanol, 0.15 M Tris (pH=6.8) and 0.01% bromophenol blue) and subjected to 12% SDS-PAGE as previously described (Kamsteeg et al, 2003). […]

caspases-3/7, -8, and -9 = assay: Caspase-3/7, -8, and -9 activity assay (Caspase-Glo) on cell lysates; details: EOC cells, 24 h; increasing concentrations of Compound 1 or 2 μM Paclitaxel
Source text: Protein preparation and cellular fractionation. After drug treatment, protein was extracted and measured as previously described (Alvero et al, 2006). For separation of the cytoplasmic and mitochondrial fractions, cell pellets were processed using the ApoAlert™ Cell Fractionation Kit (BD Biosciences, San Jose, Calif.) according to the manufacturer's instructions. For separation of the cytoplasmic and nuclear fractions, pellets were processed using NE-PER Nuclear and Cytoplasmic Extraction (Pierce Biotechnology, Inc., Rockford, Ill.). Caspase-3/7, -8, and -9 activity assay. Ten μg of protein in a 50 μl total volume was mixed with 50 μl of equilibrated Caspase-Glo^10 3/7, 8, or 9 reagents (Promega). After incubating at room temperature for 1 h, luminescence was measured using TD 20/20 Luminometer (Turner Designs, Sunnyvale, Calif.). Blank values were subtracted and fold-increase in activity was determined in relation to the control non-treatment.

Structure (SMILES)	mitochondrial depolarization (MIAPaCa-2 cells)	time of G2/M arrest post treatment (PANC-1 cells) [h]	time remained in G2/M arrest (PANC-1 cells)	caspase 2 and caspase 9 induction ([1]; 10 μM, after 48 hrs)	caspase-3 induction ([1]; 10 μM, after 48 hrs)	caspase 9 activation ([1]; 30 μM, data not shown)	p-Akt level [2]	caspase-3/7, -8, and -9 activities (caspases-3/7, -8, and -9)
COc1ccc(C2c3ccc(O)cc3OCC2c2ccc(O)cc2)cc1 (centres unmarked) [Compound 10, 3-(4-hydroxyphenyl)-4-(4-methoxyphenyl)chroman-7-ol]	depolarized	4 to 24	at least 48 hrs	neither caspase 2 or caspase 9 were induced	modestly induced	activated	–	–
COc1ccc(C2c3ccc(O)c(C)c3OCC2c2ccc(O)cc2)cc1 (centres unmarked) [Compound 1, 3-(4-hydroxyphenyl)-4-(4-methoxyphenyl)-8-methylchroman-7-ol]	–	–	–	–	–	–	strong down-regulation	no changes
